The text below walks through data of patent publication US20120053123A1, “NATRIURETIC POLYPEPTIDES HAVING MUTATIONS WITHIN THEIR DISULFIDE RINGS” (priority 2009, published 2012).

Data set [1] relates to vascular smooth muscle cells. The experiment in a line: Proliferation of vascular smooth muscle cells in culture (BrdU). In kind it is cell-based. As to conditions: 10^-5 M to 10^-8 M; for ABC-NP and ABC-NP1 all concentrations about the same effect, FIG. 21. The text has this:
FIG. 21 is a graph plotting levels of proliferation of vascular smooth muscle cells after treatment with 10^−5 M, 10^−6 M, 10^−7 M, or 10^−8 M ANP, BNP, CNP, ABC-NP, or ABC-NP1, measured by assessing bromodeoxyuridine (BrdU) levels.

A further data set has as its system normal anesthetized dogs. The experiment in a line: Cardiorenal and humoral actions of intravenous bolus in normal anesthetized dogs. In kind it is in vivo, dog. As to conditions: i.v. bolus 25 microgram/Kg; for reduction in right atrial pressure (RAP) / reduction in pulmonary capillary wedge pressure (PCWP): ABC-NP1 compared with ABC-NP; for reduction in right atrial pressure (RAP): FIG. 6; for reduction in pulmonary capillary wedge pressure (PCWP): FIG. 7; for urine flow (UV), diuresis: n=5, FIG. 3; for urinary sodium excretion (UNaV), natriuresis: n=5, FIG. 4; for mean arterial blood pressure (MAP): n=5, FIG. 5. Here is the method:
(§1) Cardiorenal and humoral actions of intravenous bolus administration of ABC-NP1 (n=5) and ABC-NP (n=5) at 25 microgram/Kg were evaluated in two separate groups of normal anesthetized dogs. The cGMP response of both peptides also was assessed in HAEC, HCF, and isolated canine glomeruli.

In data set [2] the test system is dogs with rapid ventricular pacing-induced overt heart failure with cardiorenal dysfunction. The experiment in a line: Cardiorenal and humoral actions of intravenous infusions in dogs with pacing-induced overt heart failure. In kind it is in vivo, dog. As to conditions: for glomerular filtration rate (GFR): FIG. 17; for renal blood flow: FIG. 18; for MAP: FIG. 12; for RAP: all doses (2, 10 and 100 pmol/kg/minute), FIG. 13; for PCWP: FIG. 14; for urinary sodium excretion (UNaV) / urine flow (UV): increasing doses 2, 10, 100 pmol/kg/minute. As for the experimental part: The cardiorenal and humoral actions of intravenous infusions of ABC-NP and ABC-NP1 at 2, 10, and 100 pmol/kg/minute were examined in seven dogs with rapid ventricular pacing-induced overt heart failure with cardiorenal dysfunction (240 bpm for 10 days). As shown in the study protocol depicted in FIG. 11, baseline values for MAP, RAP, PCWP, UNaV, UV, GFR, renal blood flow, urinary cGMP excretion, plasma and cGMP were measured, and animals were then infused with 2 pmol/kg/minute ABC-NP or ABC-NP1 for a lead in period of 15 minutes followed by 30 minutes, then infusion with 10 pmol/kg/minute ABC-NP or ABC-NP1 for a lead in period of 15 minutes followed by 30 minutes, and finally infusion with 100 pmol/kg/minute ABC-NP or ABC-NP1 for a lead in period of 15 minutes followed by 30 minutes, and washout for 30 minutes. Pressure measurements were taken at the end of each NP infusion period, and blood and urine samples also were collected for analysis.

Data set [3] concerns human cardiac fibroblasts (HCF). Put plainly: cGMP generation in cultured human cardiac fibroblasts (HCF). The data set is classed as cell-based. The following applies: FIG. 8, p<0.05.
Source text: (§2) Variant NPs having conservative and/or non-conservative substitutions (e.g., with respect to any of SEQ ID NOS:1 to 51), as well as fragments of any of SEQ ID NOS:1 to 51, fragments of variants of any of SEQ ID NOS:1 to 51, and polypeptides comprising any of SEQ ID NOS:1 to 51, variants or fragments of any of SEQ ID NOS:1 to 51, or fragments of variants of any of SEQ ID NOS:1 to 51, can be screened for biological activity using any of a number of assays, including those described herein. For example, the activity of a NP as described herein can be evaluated in vitro by testing its effect on cGMP production in cultured cells (e.g., cultured cardiac fibroblasts, aortic endothelial cells, or glomerular cells, as described in the Example herein). Cells can be exposed to a NP (e.g., 10^−9 to 10^−4 M NP), and samples can be assayed to evaluate the NP effects on cGMP generation. cGMP generation can be detected and measured using, for example, a competitive RIA cGMP kit (Perkin-Elmer, Boston, Mass.).
as §1

The subject of data set [4] is human aortic endothelial cells (HAEC). The experiment in a line: cGMP generation in cultured human aortic endothelial cells (HAEC). The data set is classed as cell-based. The following applies: FIG. 9, p<0.05.
Source text: as §2, §1

The subject of data set [5] is isolated canine glomeruli. The experiment in a line: cGMP generation in isolated canine glomeruli. The data set is classed as cell-based. The following applies: comparison between the two peptides, FIG. 10.
Source text: A NP as provided herein can function through one or more of the guanylyl cyclase receptors through which the native NPs function. For example, in some embodiments, a NP as provided herein can bind to and function through the NPR-A receptor through which ANP and BNP function. In some cases, a NP as provided herein can function through the NPR-B receptor through which CNP functions. Further, in some cases, a NP as provided herein can bind to and function through more than one guanylyl cyclase receptor, including NPR-A and NPR-B, for example. Methods for evaluating which receptor is involved in function of a particular NP are known in the art. For example, glomeruli, which contain both NPR-A and NPR-B, can be isolated (e.g., from a laboratory animal such as a dog) and incubated with a NP (e.g., a native, chimeric, or mutated NP), and cGMP levels can be measured. Glomeruli can be pretreated with antagonists of NPR-A or NPR-B to determine whether cGMP production stimulated by a NP through one or the other receptor can be attenuated.
as §1

For data set [6] the following is noted: previously shown, cited from earlier work.
For data set [7] the following is noted: after administration to a mammal; cited from earlier work.
Where [8] appears, read: HF dogs, highest dose (100 pmol/kg/minute), FIG. 19.
Where [9] appears, read: HF dogs, highest dose (100 pmol/kg/minute), FIG. 20.
The mark [10] stands for this setting: HF dogs, i.v. infusion, highest dose (100 pmol/kg/minute).
Where [11] appears, read: HF dogs, two highest doses (10 and 100 pmol/kg/minute).

On to “RMDRIGLSKGCFGLKLDRIREASGLGCKVLRRH [ABC-NP, ANP residues 11-15, mutated CNP in which GSM15-17 were changed to REA, and six C-terminal amino acids of BNP]”, for which the “proliferation of vascular smooth muscle cells (BrdU levels)” value (shortened to “proliferation”) in data set [1] is listed as “reduced proliferation”. Besides, in the data set with normal anesthetized dogs, the “reduction in right atrial pressure (RAP)” value is recorded as “reduction”; the “reduction in pulmonary capillary wedge pressure (PCWP)” value is recorded as “reduction”; the “urine flow (UV), diuresis” value is reported as “resulted in diuresis”; the “urinary sodium excretion (UNaV), natriuresis” value was “natriuresis”. For the same molecule, the “mean arterial blood pressure (MAP)” value in the data set with normal anesthetized dogs is recorded as “no change”. Also, in data set [2] (HF dogs, 2, 10, 100 pmol/kg/minute, significant increase only at highest dose), the “glomerular filtration rate (GFR)” value is “significance was not achieved with ABC-NP until the highest dose was used”. Moreover, the renal blood flow result in data set [2] (HF dogs, 2, 10 and 100 pmol/kg/minute) is “no effect”. In addition, in data set [2] (setting [8]), the “urinary cGMP excretion” value is recorded as “significantly increased”. Also, the “plasma cGMP” value in data set [2] (setting [9]) was “significantly increased”. Further, the MAP result in data set [2] (HF dogs, i.v. infusion 2, 10 and 100 pmol/kg/minute) is recorded as “no effect”. Also, in data set [2] (HF dogs, i.v. infusion), the RAP result was “increased”. Also, the PCWP entry in data set [2] (HF dogs, i.v. infusion, higher doses (10 and 100 pmol/kg/minute)) was “did not affect”. Moreover, in data set [2] (HF dogs, i.v. infusion, lowest dose (2 pmol/kg/minute), vs baseline), the PCWP result is on record as “reduced PCWP as compared to baseline”. The “urinary sodium excretion (UNaV)” value in data set [2] (HF dogs, FIG. 15) was “increasing effects”. In addition, the “urine flow (UV)” value in data set [2] (HF dogs, FIG. 16) is “increasing effects”. Besides, the cGMP generation result in data set [3] is reported as “minimal”. For the same molecule, the cGMP generation entry in data set [4] is listed as “minimal”. Moreover, in data set [5], the cGMP generation result is recorded as “similar”.

In the case of “RMDRIGLSKGCFGLKLDRIGSMSGLGCKVLRRH [ABC-NP1]”, the renal excretory actions entry in data set [6] (result of N- and C-terminal alterations) is “potent renal excretory actions”. Besides, in data set [6] (similar to CNP), the cardiac actions result is “cardiac unloading actions” and the hypotensive effects result is reported as “mild hypotensive effects”. For the same molecule, in data set [1], the “proliferation” value was “reduced proliferation”. Also, in the data set on normal anesthetized dogs, the “reduction in right atrial pressure (RAP)” value is on record as “significantly greater”; the “reduction in pulmonary capillary wedge pressure (PCWP)” value is on record as “significantly greater”; the “urine flow (UV), diuresis” value was “resulted in diuresis”; the “urinary sodium excretion (UNaV), natriuresis” value was “natriuresis”. Further, the “mean arterial blood pressure (MAP)” value in the data set on normal anesthetized dogs is “significant decrease”. The “effect on UNaV relative to ABC-NP” value in data set [2] (HF dogs, ABC-NP1 vs ABC-NP, FIG. 15) is 5- to 6.5 fold. Further, the “effect on UV relative to ABC-NP” value in data set [2] (HF dogs, ABC-NP1 vs ABC-NP, FIG. 16) was 1.5- to 2 fold. Also, the “urinary cGMP excretion” value in data set [2] (setting [8]) was “significantly increased”. Also, the “plasma cGMP” value in data set [2] (setting [9]) is given as “significantly increased”. In addition, the “effect on urinary cGMP excretion relative to ABC-NP” value in data set [2] (HF dogs, highest dose, ABC-NP1 vs ABC-NP, FIG. 19) is on record as “about a two-fold greater effect”. In addition, the “effect on plasma cGMP relative to ABC-NP” value in data set [2] (HF dogs, highest dose, ABC-NP1 vs ABC-NP, FIG. 20) is “about a two-fold greater effect”. For the same molecule, the RAP result in data set [2] (HF dogs, i.v. infusion) was “significantly reduced”. Besides, in data set [2] (setting [10]), the MAP result is “significantly reduced” and the PCWP entry is reported as “significantly reduced”. Also, in data set [2] (HF dogs, FIG. 15), the “urinary sodium excretion (UNaV)” value is “increasing effects”. The “urine flow (UV)” value in data set [2] (HF dogs, FIG. 16) is “increasing effects”. In data set [2] (setting [11]), the “glomerular filtration rate (GFR)” value was “significant increases” and the renal blood flow result was “significant increases”. Also, the cGMP generation entry in data set [3] is listed as “significantly higher”. In data set [4], the cGMP generation result was “significantly higher”. The cGMP generation result in data set [5] is listed as “similar”.

Turning to C-type natriuretic peptide [CNP], in data set [1], the “proliferation” value is given as “decreased as the concentration decreased”. Also, the half-life entry in data set [7] was “about a minute and a half”.

Regarding B-type natriuretic peptide [BNP], the “proliferation” value in data set [1] was “decreased as the concentration decreased”.

Turning to `CC[C@H](C)[C@@H]1NC(=O)[C@H](CCCNC(=N)N)NC(=O)[C@H](CC(=O)O)NC(=O)[C@H](CCSC)NC(=O)[C@H](CCCNC(=N)N)NC(=O)CNC(=O)CNC(=O)[C@H](Cc2ccccc2)NC(=O)[C@@H](NC(=O)[C@H](CO)NC(=O)[C@H](CO)NC(=O)[C@H](CCCNC(=N)N)NC(=O)[C@H](CCCNC(=N)N)NC(=O)[C@H](CC(C)C)NC(=O)[C@@H](N)CO)CSSC[C@@H](C(=O)N[C@@H](CC(N)=O)C(=O)N[C@@H](CO)C(=O)N[C@@H](Cc2ccccc2)C(=O)N[C@@H](CCCNC(=N)N)C(=O)N[C@@H](Cc2ccc(O)cc2)C(=O)O)NC(=O)CNC(=O)[C@H](CC(C)C)NC(=O)CNC(=O)[C@H](CO)NC(=O)[C@H](CCC(N)=O)NC(=O)[C@H](C)NC(=O)CNC1=O` [ANP, atrial natriuretic peptide], in data set [1], the “proliferation” value was “decreased as the concentration decreased”.
